Test results reported in patent publication US5306720A, “Piperidine derivative and pharmaceutical composition” (priority 1985, dated 1994).
Where a name gives a salt, the structure may show the parent alone.

target: T1, acetylcholinesterase (Mus musculus, UniProt P21836); assay: biochemical; assay type: biochemical; conditions: mouse brain homogenate; thiocholine method, absorbance at 412 nm; read-out: AChE inhibitory activity IC50
T1 construct: Using a mouse brain homogenate as a source of acetylcholinesterase; from tissue; host or cells: mouse brain homogenate
T1 sequence (P21836 32-614): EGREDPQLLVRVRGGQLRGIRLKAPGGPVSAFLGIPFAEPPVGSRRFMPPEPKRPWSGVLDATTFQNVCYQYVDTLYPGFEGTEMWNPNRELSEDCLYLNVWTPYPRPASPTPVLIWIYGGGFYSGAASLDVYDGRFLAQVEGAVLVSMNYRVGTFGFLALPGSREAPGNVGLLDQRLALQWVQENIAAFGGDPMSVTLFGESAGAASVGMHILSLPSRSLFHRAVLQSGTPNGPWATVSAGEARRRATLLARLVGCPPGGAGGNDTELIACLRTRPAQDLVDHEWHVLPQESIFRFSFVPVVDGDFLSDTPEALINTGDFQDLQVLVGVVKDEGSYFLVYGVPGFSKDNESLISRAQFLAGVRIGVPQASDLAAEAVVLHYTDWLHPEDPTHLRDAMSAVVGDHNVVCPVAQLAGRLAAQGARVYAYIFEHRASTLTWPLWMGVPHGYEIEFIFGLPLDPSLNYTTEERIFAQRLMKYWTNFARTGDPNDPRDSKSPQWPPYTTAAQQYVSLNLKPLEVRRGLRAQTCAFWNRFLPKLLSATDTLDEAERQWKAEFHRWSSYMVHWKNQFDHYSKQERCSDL
Protocol: Acetylcholinesterase Inhibitory Action using Mouse Brain Homogenate
Using a mouse brain homogenate as a source of acetylcholinesterase, the esterase activity was measured by a thiocholine method. Acetylcholine as a substrate, the compound of the invention as a substance to test and 5,5'-dithio-bis(2-nitrobenzoic acid), called also DTNB, were added to the mouse brain homogenate. After incubation, thiocholine produced was reacted with DTNB to form a yellow product.

Row | Structure (SMILES) | IC50 [nM]
1 | O=C1c2cccc([N+](=O)[O-])c2C(=O)N1CCC1CCN(Cc2ccccc2)CC1 [Example 47] | 9
2 | O=c1[nH]c2cc(Cl)ccc2c(=O)n1CCC1CCN(Cc2ccccc2)CC1 [Example 68] | 4.5
3 | CCN(CC)C(=O)c1ccc2c(c1)C(=O)N(CCC1CCN(Cc3ccccc3)CC1)C2=O [Example 52] | 1.5
4 | COc1cc2c(cc1Cl)C(=O)N(CCC1CCN(Cc3ccccc3)CC1)C2=O [Example 56] | 3.3
5 | O=C(NCCC1CCN(Cc2ccccc2)CC1)c1ccc(SCc2ccccc2)cc1 [Example 88] | 49
6 | O=C(NCCC1CCN(Cc2ccccc2)CC1)c1ccc2c(c1)C(=O)c1ccccc1C2=O [Example 25] | 4.5
7 | O=C1c2ccc(Cl)cc2C(=O)N1CCC1CCN(Cc2ccccc2)CC1 [Example 133] | 7.9
8 | O=C(NCCC1CCN(Cc2ccccc2)CC1)c1ccc([N+](=O)[O-])cc1 [Example 71] | 55
9 | O=C(NCCC1CCN(Cc2ccccc2)CC1)c1ccc(C(=O)NCc2ccccc2)cc1 [Example 26] | 9
10 | O=C(Nc1ccc2c(c1)C(=O)N(CCC1CCN(Cc3ccccc3)CC1)C2=O)c1ccccc1 [Example 111] | 0.88
11 | O=C1c2nccnc2C(=O)N1CCC1CCN(Cc2ccccc2)CC1 [Example 8, N-[2-(N'-benzylpiperidino-4)ethyl]-2,3-pyrazinedicarboxylic acid imide] | 80
12 | O=C1c2cc3ccccc3cc2C(=O)N1CCC1CCN(Cc2ccccc2)CC1 [Example 57] | 1.2
13 | Cc1ccc2[nH]c(=O)n(CCC3CCN(Cc4ccccc4)CC3)c(=O)c2c1 [Example 113] | 4.7
14 | CC(=O)Nc1ccc2c(c1)C(=O)N(CCC1CCN(Cc3ccccc3)CC1)C2=O [Example 50] | 2.8
15 | CN(CCC1CCN(Cc2ccccc2)CC1)C(=O)c1ccc(-c2ccccc2)cc1 [Example 32] | 4.3
16 | CN(CCC1CCN(Cc2ccccc2)CC1)C(=O)c1ccncc1 [Example 5, N-methyl-N-[4'-(1'-benzylpiperidyl)ethyl] isonicotinic acid amide hydrochloride] | 88
17 | CN(CCC1CCN(Cc2ccc(O)cc2)CC1)C(=O)c1ccc(S(=O)(=O)Cc2ccccc2)cc1 [Example 41] | 0.8
18 | CN(CCC1CCN(Cc2ccccc2)CC1)C(=O)c1ccc(S(=O)(=O)C2CCCC2)cc1 [Example 6, N-methyl-N-[4'-(1'-benzylpiperidine)ethyl]-4-cyclopentylsulfonylbenzamide.hydrochloride] | 21
19 | O=C(NCCC1CCN(Cc2ccccc2)CC1)c1ccc(SCCl)cc1 [Example 115] | 6.7
20 | O=C(c1ccccc1)c1ccc2c(c1)C(=O)N(CCC1CCN(Cc3ccccc3)CC1)C2=O [Example 53] | 2.4
21 | O=c1c2cc3c(=O)n(CCC4CCN(Cc5ccccc5)CC4)c(=O)c3cc2c(=O)n1CCC1CCN(Cc2ccccc2)CC1 [Example 112] | 0.15
22 | O=C1c2cccnc2C(=O)N1CCC1CCN(Cc2ccccc2)CC1 [Example 58] | 13
23 | O=C(NCc1ccccc1)c1ccc2c(c1)C(=O)N(CCC1CCN(Cc3ccccc3)CC1)C2=O [Example 51] | 2.2
24 | CN(CCC1CCN(Cc2ccccc2)CC1)C(=O)c1ccc(S(=O)(=O)Cc2ccccc2)cc1 [Example 4, N-methyl-N-[4'-(1'-benzylpiperidine)ethyl]-4-benzylsulfonylbenzamide, hydrochloride] | 0.6
25 | O=C1c2cccc3cccc(c23)C(=O)N1CCC1CCN(Cc2ccccc2)CC1 [Example 9, N-[2-(N'-benzylpiperidino-4)ethyl]-1,8-naphthalimide] | 5.5
26 | O=C1c2ccc([N+](=O)[O-])cc2C(=O)N1CCC1CCN(Cc2ccccc2)CC1 [Example 7, N-[2-(N'-benzylpiperidino-4)ethyl]-4-nitrophthalimide.hydrochloride] | 14

same assay, conditions: read-out: AChE inhibitory activity IC50

Row | Structure (SMILES) | IC50 [nM]
27 | COc1ccc2c(c1)C(=O)N(CCC1CCN(Cc3ccccc3)CC1)C2=O [Example 54] | 8

system: ddY male mouse; assay: Acute Toxicity Test for ddY Male Mouse; assay type: in vivo; conditions: oral to mouse, 100 mg (mg/kg), ddY male mice
Protocol: Acute Toxicity Test for ddY Male Mouse
Acute toxicity test was carried out using ddY male mice.

Row | Structure (SMILES) | number of deaths / number of animals used, 100 mg
28 | O=c1[nH]c2ccccc2c(=O)n1CCC1CCN(Cc2ccccc2)CC1 [Example 10, 3-[2-(1-benzyl-4-piperidino)ethyl]-2,4-(1H,3H)-quinazolidione.hydrochloride] | 3/4
29 | CN(CCC1CCN(Cc2ccccc2)CC1)C(=O)c1ccncc1 [Example 5, N-methyl-N-[4'-(1'-benzylpiperidyl)ethyl] isonicotinic acid amide hydrochloride] | 1/4
30 | CN(CCC1CCN(Cc2ccccc2)CC1)C(=O)c1ccc(S(=O)(=O)Cc2ccccc2)cc1 [Example 4, N-methyl-N-[4'-(1'-benzylpiperidine)ethyl]-4-benzylsulfonylbenzamide, hydrochloride] | 0/3

same assay, conditions: oral to mouse, 300 mg (mg/kg), ddY male mice

Row | Structure (SMILES) | number of deaths / number of animals used, 300 mg
31 | CN(CCC1CCN(Cc2ccccc2)CC1)C(=O)c1ccncc1 [Example 5, N-methyl-N-[4'-(1'-benzylpiperidyl)ethyl] isonicotinic acid amide hydrochloride] | 4/4
32 | CN(CCC1CCN(Cc2ccccc2)CC1)C(=O)c1ccc(S(=O)(=O)Cc2ccccc2)cc1 [Example 4, N-methyl-N-[4'-(1'-benzylpiperidine)ethyl]-4-benzylsulfonylbenzamide, hydrochloride] | 2/4
33 | O=C1c2ccc([N+](=O)[O-])cc2C(=O)N1CCC1CCN(Cc2ccccc2)CC1 [Example 7, N-[2-(N'-benzylpiperidino-4)ethyl]-4-nitrophthalimide.hydrochloride] | 0/3
